Patent US20090285791A1, “Regenerating and enhancing development of muscle tissue” (Sbarro Health Research Organization, Inc., priority 2008, published 2009)

Experiments:
cdk9-55 = cdk9-55 (Homo sapiens, UniProt P50750); details: Shore et al. 2003; Liu and Herman 2005; cited from earlier work
C2C12 cells = assay: C2C12 myoblast differentiation in the presence of kinase inhibitor DRB; assay type: cell-based, mouse; details: C2C12 induced to differentiate
Description: C2C12 cells were grown in DMEM supplemented with 20% FBS (GM) or with 2% HS (DM).
Immunoprecipitations were performed with anti-MyoD antibody (Santa Cruz, Calif.) followed by the addition of protein A-sepharose. Beads were extensively washed and loading buffer without β-mercaptoethanol was added at 4° C. to work in non-denaturing conditions. Samples were resolved in PAA-Gels and transferred to a Hybond-ECL nitrocellulose (Amersham, IL). The blots were blocked with TBST containing 5% non-fat dry milk. Antibodies specific for cdk9, myogenin, MHC, RNAPolII, P-Serine2-CTD, Desmin and tubulin were used as described in Simone et al., 2002; Giacinti et al., 2006. Anti-rabbit and anti-mouse peroxidase conjugated and ECL detection system (Amersham, IL) were used for detection.
Since cdk9-55 activity, as well as cdk9-42 activity (Shore et al., Gene 307, 175-182, 2003; Liu and Herman, J. Cell. Physiol. 203, 251-260, 2005), could be inhibited by pharmacological blockade, C2C12 cells were induced to differentiate with the kinase specific inhibitor DRB.

Chain of cdk9-55 (P50750 1-489 isoform P50750-2): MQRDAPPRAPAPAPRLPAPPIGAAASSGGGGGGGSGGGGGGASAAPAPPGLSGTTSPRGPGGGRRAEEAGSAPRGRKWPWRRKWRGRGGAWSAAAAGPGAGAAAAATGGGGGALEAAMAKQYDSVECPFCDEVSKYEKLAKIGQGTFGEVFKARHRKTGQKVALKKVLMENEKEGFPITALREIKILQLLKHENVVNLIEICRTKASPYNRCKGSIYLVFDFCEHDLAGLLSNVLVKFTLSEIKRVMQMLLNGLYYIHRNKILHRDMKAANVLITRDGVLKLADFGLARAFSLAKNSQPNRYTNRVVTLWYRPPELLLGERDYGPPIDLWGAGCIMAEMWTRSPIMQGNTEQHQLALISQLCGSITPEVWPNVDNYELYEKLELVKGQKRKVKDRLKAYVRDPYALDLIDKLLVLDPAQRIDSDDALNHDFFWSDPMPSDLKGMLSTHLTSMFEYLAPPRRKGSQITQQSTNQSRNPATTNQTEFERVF
Chain of cdk9-55 (O60563 whole entry partner): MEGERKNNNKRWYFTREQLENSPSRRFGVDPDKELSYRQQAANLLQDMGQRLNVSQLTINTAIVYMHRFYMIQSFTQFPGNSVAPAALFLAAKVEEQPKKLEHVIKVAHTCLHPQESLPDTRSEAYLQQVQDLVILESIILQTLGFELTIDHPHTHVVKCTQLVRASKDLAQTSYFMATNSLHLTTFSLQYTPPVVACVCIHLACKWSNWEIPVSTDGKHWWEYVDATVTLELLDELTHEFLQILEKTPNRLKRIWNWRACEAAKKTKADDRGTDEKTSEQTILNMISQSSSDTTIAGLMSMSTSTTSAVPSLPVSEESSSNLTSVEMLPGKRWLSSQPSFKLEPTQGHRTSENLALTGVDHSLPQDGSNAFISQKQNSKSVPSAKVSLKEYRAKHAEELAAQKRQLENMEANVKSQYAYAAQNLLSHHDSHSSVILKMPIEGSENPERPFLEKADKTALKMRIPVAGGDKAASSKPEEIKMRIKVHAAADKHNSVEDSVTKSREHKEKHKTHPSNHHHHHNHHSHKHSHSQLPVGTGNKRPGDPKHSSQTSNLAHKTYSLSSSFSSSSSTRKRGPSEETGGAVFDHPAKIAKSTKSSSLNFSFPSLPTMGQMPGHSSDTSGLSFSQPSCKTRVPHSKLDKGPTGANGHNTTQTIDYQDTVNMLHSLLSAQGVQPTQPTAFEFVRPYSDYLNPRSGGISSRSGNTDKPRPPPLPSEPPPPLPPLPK

OC[C@H]1O[C@@H](n2cnc3cc(Cl)c(Cl)cc32)[C@H](O)[C@@H]1O [DRB, 5,6-dichloro-1-β-d-ribofuranosylbenzimidazole]
cdk9-55 kinase activity (cdk9-55): specifically inhibited | multinucleated myotubes (C2C12 cells; DRB 100 μM): absence of multinucleated myotubes | terminal differentiation (C2C12 cells; DRB 100 μM (FIG. 1D, 1E)): failed to undergo terminal differentiation | MHC levels (C2C12 cells; DRB 100 μM, immunoblot): low MHC levels
